Measurements reported in US11986532B2 (Arvinas Operations, Inc., priority 2021, dated 2024).
Read-outs that look alike come from different tables or passages of the source.

Biological target: T1, BCL6 (Homo sapiens, UniProt P41182)
T1 construct: endogenous in cells; host or cells: T47D breast cancer epithelial cells
Test: Immunofluorescence protocol for high content imaging of BCL6 (degradation) in T47D cells, 3 days compound treatment
Format: cell-based
Conditions: for DC50: read-out: Mean DC50 (nM)* category; for Dmax: read-out: Mean Dmax (%)** category
In short: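 T47D, RPMI1640/10% FBS; cpd 11-pt 3-fold, top 0.1 or 1 μM final; 3 d, 37° C. Fix 4% PFA, perm 0.1% Triton, block 3% BSA; anti-BCL6 1:300 o/n 4° C; Alexa-488 2°, CellMask-647, Hoechst. Imaged 10×, 4 fields/well.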

[1] = T47D cells, 3 days compound treatment

SMILES | DC50 [1] | Dmax [1] | Dmax (T47D) | DC50
CNC(=O)COc1cc2cc(Nc3nc(N4CCC(O[C@H]5C[C@H](N6CCC(c7ccc8c(c7OC)CN(C7CCC(=O)NC7=O)C8=O)CC6)C5)CC4)ncc3Cl)ccc2n(C(C)C)c1=O (stereo partly drawn) [Compound 72, 2-[[6-[[5-chloro-2-[4-[3-[4-[2-(2,6-dioxo-3-piperidyl)-4-methoxy-1-oxo-isoindolin-5-yl]-1-piperidyl]cyclobutoxy]-1-piperidyl]pyrimidin-4-yl]amino]-1-isopropyl-2-oxo-3-quinolyl]oxy]-N-methyl-acetamide] | < 10 nM | 50 to 70% | – | –
CNC(=O)COc1cc2cc(Nc3nc(N4CCC(O[C@H]5C[C@H](N6CCN(c7ccc8c(c7Cl)CN([C@@H]7CCC(=O)NC7=O)C8=O)[C@H](C)C6)C5)CC4)ncc3Cl)ccc2n(C(C)C)c1=O [Compound 268, 2-({6-[(5-chloro-2-{4-[(1r,3r)-3-[(3R)-4-{4-chloro-2-[(3R)-2,6-dioxopiperidin-3-yl]-1-oxo-3H-isoindol-5-yl}-3-methylpiperazin-1-yl]cyclobutoxy]piperidin-1-yl}pyrimidin-4-yl)amino]-1-isopropyl-2-oxoquinolin-3-yl}oxy)-N-methylacetamide] | – | – | ≥ 70% | < 10 nM
CNC(=O)COc1cc2cc(Nc3nc(N4CCC(CN5CCC6(CN(c7ccc8c(c7OC)CN(C7CCC(=O)NC7=O)C8=O)C6)C(F)(F)C5)CC4)ncc3Cl)ccc2n(C(C)C)c1=O (stereo not drawn) [Compound 352, 2-{[6-({5-chloro-2-[4-({2-[2-(2,6-dioxopiperidin-3-yl)-4-methoxy-1-oxo-2,3-dihydro-1H-isoindol-5-yl]-5,5-difluoro-2,7-diazaspiro [3.5]nonan-7-yl}methyl)piperidin-1-yl]pyrimidin-4-yl}amino)-2-oxo-1-(propan-2-yl)-1,2-dihydroquinolin-3-yl]oxy}-N-methylacetamide] | – | – | < 50% | 10 to 50 nM
CNC(=O)COc1cc2cc(Nc3nc(N4CCC(O[C@H]5C[C@H](N6CCC(c7c(OC)cc8c(c7F)CN(C7CCC(=O)NC7=O)C8=O)CC6)C5)CC4)ncc3Cl)ccc2n(C(C)C)c1=O (stereo partly drawn) [Compound 409, 2-({6-[(5-chloro-2-{4-[(1r,3r)-3-{4-[2-(2,6-dioxopiperidin-3-yl)-4-fluoro-6-methoxy-1-oxo-2,3-dihydro-1H-isoindol-5-yl]piperidin-1-yl}cyclobutoxy]piperidin-1-yl}pyrimidin-4-yl)amino]-2-oxo-1-(propan-2-yl)-1,2-dihydroquinolin-3-yl}oxy)-N-methylacetamide] | – | – | ≥ 70% | < 10 nM
CNC(=O)COc1cc2cc(Nc3nc(N4CCC(CN5CCC6(CC5)CN(c5ccc7c(c5)C(=O)N(C5CCC(=O)NC5=O)C7=O)C6)CC4)ncc3F)ccc2n(C(C)C)c1=O (stereo not drawn) [Compound 57, 2-{[6-({2-[4-({2-[2-(2,6-dioxopiperidin-3-yl)-1,3-dioxo-2,3-dihydro-1H-isoindol-5-yl]-2,7-diazaspiro[3.5]nonan-7-yl}methyl)piperidin-1-yl]-5-fluoropyrimidin-4-yl}amino)-2-oxo-1-(propan-2-yl)-1,2-dihydroquinolin-3-yl]oxy}-N-methylacetamide] | 10 to 50 nM | 50 to 70% | – | –
CNC(=O)COc1cc2cc(Nc3nc(N4CCC(O[C@H]5C[C@H](N6C[C@@H](C)N(c7ccc8c(c7)CN(C7CCC(=O)NC7=O)C8=O)[C@@H](C)C6)C5)CC4)ncc3Cl)ccc2n(C(C)C)c1=O (stereo partly drawn) [Compound 174, 2-({6-[(5-chloro-2-{4-[(1r,3r)-3-[(3R,5S)-4-[2-(2,6-dioxopiperidin-3-yl)-1-oxo-2,3-dihydro-1H-isoindol-5-yl]-3,5-dimethylpiperazin-1-yl]cyclobutoxy]piperidin-1-yl}pyrimidin-4-yl)amino]-2-oxo-1-(propan-2-yl)-1,2-dihydroquinolin-3-yl}oxy)-N-methylacetamide] | < 10 nM | ≥ 70% | – | –
CC[C@@H]1CN([C@H]2C[C@H](OC3CCN(c4ncc(Cl)c(Nc5ccc6c(c5)cc(OCC(=O)NC)c(=O)n6C(C)C)n4)CC3)C2)CCN1c1ccc2c(c1Cl)CN(C1CCC(=O)NC1=O)C2=O (stereo partly drawn) [Compound 205, 2-({6-[(5-chloro-2-{4-[(1r,3r)-3-[(3R)-4-[4-chloro-2-(2,6-dioxopiperidin-3-yl)-1-oxo-2,3-dihydro-1H-isoindol-5-yl]-3-ethylpiperazin-1-yl]cyclobutoxy]piperidin-1-yl}pyrimidin-4-yl)amino]-2-oxo-1-(propan-2-yl)-1,2-dihydroquinolin-3-yl}oxy)-N-methylacetamide] | < 10 nM | ≥ 70% | – | –
CNC(=O)COc1cc2cc(Nc3nc(N4CCN(C[C@H]5C[C@@H](N6CCC(c7ccc8c(c7)C(=O)N(C7CCC(=O)NC7=O)C8=O)CC6)C5)CC4)ncc3Cl)ccc2n(C(C)C)c1=O (stereo partly drawn) [Compound 40, 2-[(6-{[5-chloro-2-(4-{[(1s,3s)-3-{4-[2-(2,6-dioxopiperidin-3-yl)-1,3-dioxo-2,3-dihydro-1H-isoindol-5-yl]piperidin-1-yl}cyclobutyl]methyl}piperazin-1-yl)pyrimidin-4-yl]amino}-2-oxo-1-(propan-2-yl)-1,2-dihydroquinolin-3-yl)oxy]-N-methylacetamide] | 10 to 50 nM | 50 to 70% | – | –
CNC(=O)COc1cc2cc(Nc3nc(N4CCC(O[C@H]5C[C@H](N6CCC(c7cc8c(c(OC)c7)C(=O)N(C7CCC(=O)NC7=O)C8)CC6)C5)CC4)ncc3Cl)ccc2n(C(C)C)c1=O (stereo partly drawn) [Compound 103, 2-({6-[(5-chloro-2-{4-[(1r,3r)-3-{4-[2-(2,6-dioxopiperidin-3-yl)-7-methoxy-1-oxo-2,3-dihydro-1H-isoindol-5-yl]piperidin-1-yl}cyclobutoxy]piperidin-1-yl}pyrimidin-4-yl)amino]-2-oxo-1-(propan-2-yl)-1,2-dihydroquinolin-3-yl}oxy)-N-methylacetamide] | < 10 nM | 50 to 70% | – | –
CCNC(=O)COc1cc2cc(Nc3nc(N4CCC(CN5CCC6(CC5)CN(c5ccc7c(c5)C(=O)N(C5CCC(=O)NC5=O)C7=O)C6)CC4)ncc3Cl)ccc2n(C(C)C)c1=O (stereo not drawn) [Compound 56, 2-{[6-({5-chloro-2-[4-({2-[2-(2,6-dioxopiperidin-3-yl)-1,3-dioxo-2,3-dihydro-1H-isoindol-5-yl]-2,7-diazaspiro[3.5]nonan-7-yl}methyl)piperidin-1-yl]pyrimidin-4-yl}amino)-2-oxo-1-(propan-2-yl)-1,2-dihydroquinolin-3-yl]oxy}-N-ethylacetamide] | ≥ 100 nM | ≥ 70% | – | –
CNC(=O)COc1cc2cc(Nc3nc(N4CCC5(CC4)CC(C(C)(C)N4CCN(c6cccc7c6CN(C6CCC(=O)NC6=O)C7=O)CC4)C5)ncc3Cl)ccc2n(C(C)C)c1=O (stereo not drawn) [Compound 34, 2-{[6-({5-chloro-2-[2-(2-{4-[2-(2,6-dioxopiperidin-3-yl)-1-oxo-2,3-dihydro-1H-isoindol-4-yl]piperazin-1-yl}propan-2-yl)-7-azaspiro[3.5]nonan-7-yl]pyrimidin-4-yl}amino)-2-oxo-1-(propan-2-yl)-1,2-dihydroquinolin-3-yl]oxy}-N-methylacetamide] | < 10 nM | 50 to 70% | – | –
CNC(=O)COc1cc2cc(Nc3nc(N4CCC(O[C@H]5C[C@H](N6CCN(c7cc(F)c8c(c7F)CN(C7CCC(=O)NC7=O)C8=O)CC6)C5)CC4)ncc3Cl)ccc2n(C(C)C)c1=O (stereo partly drawn) [Compound 273, 2-({6-[(5-chloro-2-{4-[(1r,3r)-3-{4-[2-(2,6-dioxopiperidin-3-yl)-4,7-difluoro-1-oxo-2,3-dihydro-1H-isoindol-5-yl]piperazin-1-yl}cyclobutoxy]piperidin-1-yl}pyrimidin-4-yl)amino]-2-oxo-1-(propan-2-yl)-1,2-dihydroquinolin-3-yl}oxy)-N-methylacetamide] | – | – | 50 to 70% | < 10 nM
